Laboratory results as given in paper PMC11678245, “The Molecular Basis of the Intrinsic and Acquired Resistance to Azole Antifungals in Aspergillus fumigatus” (Journal of Fungi, 2024).
Several values for one entry are separate records, joined by “and”; a condition that tells them apart may be missing. Equal values may be shown once. Read-outs that look alike come from different tables or passages of the source.

Columns and labels:
[1] = tested on: S. cerevisiae strain ARE I301T (AfCyp51A-6×His I301T, AfCprA2, AfErg6-FLAG); assay: MIC80 susceptibility, strain I301T; type: cell-based, Saccharomyces cerevisiae; conditions: for MIC80: ± SD
Procedure: (§1) The susceptibilities of S. cerevisiae strains to antifungal drugs were determined as minimum growth inhibitory concentration (MIC) values in 200 μL SD pH 6.8 [24]. Serial 2-fold dilutions of 100 μL of azole or control drugs in SD pH 6.8 were prepared in a 96-well microtiter plate. A portion of a 2 mL SD pH 6.8 overnight culture of the test strain was inoculated into 3 mL fresh SD pH 6.8 and incubated for 4 to 6 h at 30 °C to generate logarithmic-phase cells. These cells were then diluted with fresh SD pH 6.8 to OD600nm = 0.01 (3 × 10^4 CFU), and 100 μL of this cell suspension was added to microtiter plate wells. Cell growth after 48 h incubation at 30 °C with shaking at 200 rpm was determined at 600 nm using a BioTek™ Synergy™ 2 multi-Mode microplate reader controlled using Gen5™ Data Analysis Software version 3.16.10 (BioTek Instruments, Winooski, VT, USA). MIC80 values (80% growth inhibition in the presence of the test drug compared with the untreated control) for each yeast construct were determined as technical triplicates repeated three times for three separate clones.

[2] = tested on: S. cerevisiae strain ADLS overexpressing ScCYP51-6×His; assay: MIC80 susceptibility, strain ADLS; type: cell-based, Saccharomyces cerevisiae; conditions: for MIC80: Saccharomyces cerevisiae, Table 2, strain ADLS, SD pH 6.8, 48 h, 30 °C, ± SD, read-out: MIC80
Procedure: as §1

[3] = tested on: S. cerevisiae strain ARE (AfCyp51A-6×His, AfCprA2, AfErg6-FLAG); assay: MIC80 susceptibility, strain ARE; type: cell-based, Saccharomyces cerevisiae
Procedure: as §1

[4] = tested on: S. cerevisiae strain BRE (AfCyp51B-6×His, AfCprA2, AfErg6-FLAG); assay: MIC80 susceptibility, strain BRE; type: cell-based, Saccharomyces cerevisiae; conditions: for MIC80: strain BRE, ± SD
Procedure: as §1

[5] = tested on: S. cerevisiae strain BR (AfCyp51B-6×His, AfCprA2-6×His); assay: MIC80 susceptibility, strain BR; type: cell-based; conditions: Saccharomyces cerevisiae; Table 2; strain BR; SD pH 6.8, 48 h, 30 °C; ± SD; read-out: MIC80
Procedure: as §1

[6] = tested on: S. cerevisiae Y2305 ADΔΔ CYP51 T322I (ScCYP51 T322I); assay: MIC80 susceptibility, strain Y2305 (Table S1); type: cell-based, Saccharomyces cerevisiae; conditions: Saccharomyces cerevisiae, read-out: MIC80
Procedure: as §1, with “clones. […]” for “clones.”
(§2) Table S1. Azole susceptibilities of ScCYP51 and ScCYP51 T322I expressed
(§3) Data for each strain was obtained for […] in three biological replicates.

[7] = tested on: S. cerevisiae strain ARE T289A (AfCyp51A-6×His T289A, AfCprA2, AfErg6-FLAG); assay: MIC80 susceptibility, strain T289A; type: cell-based, Saccharomyces cerevisiae; conditions: for MIC80: ± SD
Procedure: as §1

[8] = tested on: S. cerevisiae strain ARE Y121F T289A (AfCyp51A-6×His Y121F T289A, AfCprA2, AfErg6-FLAG); assay: MIC80 susceptibility, strain Y121F T289A; type: cell-based, Saccharomyces cerevisiae; conditions: for MIC80: Saccharomyces cerevisiae, ± SD, read-out: MIC80
Procedure: as §1

[9] = tested on: S. cerevisiae Y2300 ADΔΔ CYP51 (ScCYP51); assay: MIC80 susceptibility, strain Y2300 (Table S1); type: cell-based, Saccharomyces cerevisiae; conditions: Saccharomyces cerevisiae
Procedure: as §1, with “clones. […]” for “clones.”
as §2, §3

[10] = tested on: S. cerevisiae strain AR (AfCyp51A-6×His, AfCprA2-6×His); assay: MIC80 susceptibility, strain AR; type: cell-based, Saccharomyces cerevisiae; conditions: Saccharomyces cerevisiae; Table 2; strain AR; SD pH 6.8, 48 h, 30 °C; ± SD; read-out: MIC80
Procedure: as §1

[11] = tested on: S. cerevisiae strain ADΔΔ (native ScCYP51); assay: MIC80 susceptibility, host strain ADΔΔ; type: cell-based; conditions: Saccharomyces cerevisiae, Table 2, SD pH 6.8, 48 h, 30 °C
Procedure: as §1

[12] = tested on: S. cerevisiae strain A (AfCyp51A-6×His, native ScCyp51 retained); assay: MIC80 susceptibility, strain A; type: cell-based; conditions: Saccharomyces cerevisiae, Table 2, SD pH 6.8, 48 h, 30 °C
Procedure: as §1

[13] = tested on: S. cerevisiae strain ARE Y121F (AfCyp51A-6×His Y121F, AfCprA2, AfErg6-FLAG); assay: MIC80 susceptibility, strain Y121F; type: cell-based, Saccharomyces cerevisiae; conditions: for MIC80: Saccharomyces cerevisiae, ± SD, read-out: MIC80
Procedure: as §1

[14] = Saccharomyces cerevisiae, 48 h, pH 6.8, Table 2, strain I301T, SD pH 6.8, 48 h, 30 °C, read-out: MIC80
[15] = Saccharomyces cerevisiae, Table 2, SD pH 6.8, 48 h, 30 °C, read-out: MIC80
[16] = Saccharomyces cerevisiae, 48 h, pH 6.8, Table 2, strain T289A, SD pH 6.8, 48 h, 30 °C, read-out: MIC80
[17] = Table 2, strain Y121F T289A, SD pH 6.8, 48 h, 30 °C
[18] = Table 2, strain Y121F, SD pH 6.8, 48 h, 30 °C

SMILES	MIC80 [1, 14]	MIC80 [2]	MIC80 [4, 15]	MIC80 [5]	MIC80 [6]	greater susceptibility (MIC80) of strain T289A compared with strain ARE [7]	MIC80 [7, 16]	increase in resistance (MIC80) of strain Y121F T289A compared with strain BRE [8]	increase in resistance (MIC80) of strain Y121F T289A compared with strain T289A [8]	MIC80 [8, 17]	MIC80 [9]	MIC80 [10]	MIC80 [11]	MIC80 [12]	MIC80 [13, 18]	further results
OC(Cn1cncn1)(Cn1cncn1)c1ccc(F)cc1F [FLC, fluconazole]	77.2 ± 5.9 µM	8 ± 0.2 µM	10 ± 1.4 µM	2.9 ± 0.4 µM	6.6 ± 0.2 µM	11 fold	21.3 ± 2.7 µM	106 fold	53 fold	1060 ± 60 µM	6.2 ± 0.3 µM	6.5 ± 0.7 µM	3.3 ± 0.2 µM	3.8 ± 0.2 µM	263 ± 31.6 µM	greater susceptibility (MIC80) of strain I301T compared with strain ARE [1]: 3 fold; MIC80 ([1]; Saccharomyces cerevisiae, Table 3, strain ARE I301T, read-out: MIC80): 65 ± 14 µM; MIC80 of strain ADLS relative to strain ADΔΔ ([2]; higher): 3 fold; MIC80 ([3]; Saccharomyces cerevisiae, 48 h, pH 6.8): 227 ± 19 µM; MIC80 ([3]; Saccharomyces cerevisiae, Table 3, strain ARE, ± SD, read-out: MIC80): 151 ± 66 µM; MIC80 ([3]; Table 2, strain ARE, SD pH 6.8, 48 h, 30 °C, ± SD): 227 ± 18 µM and 227 ± 18.5 µM; MIC80 ([4]; Saccharomyces cerevisiae, Table 3, read-out: MIC80): 3.8 ± 0.9 µM; MIC80 ([4]; Table 2, SD pH 6.8, 48 h, 30 °C): 10.0 ± 1.4 µM; MIC80 ([7]; Saccharomyces cerevisiae, Table 3, strain ARE T289A, read-out: MIC80): 12 ± 2 µM; MIC80 of strain T289A relative to strain ADΔΔ ([7]; higher): 7 fold; increase in resistance (MIC80) of strain Y121F T289A compared with strain ARE [8]: 5 fold; increase in resistance (MIC80) of strain Y121F T289A compared with strain Y121F [8]: 4 fold; MIC80 ([8]; Table 3, strain ARE Y121F T289A): 725 ± 65 µM; MIC80 ([13]; Table 3, strain ARE Y121F): 157 ± 33 µM
C[C@@H](c1ncncc1F)[C@](O)(Cn1cncn1)c1ccc(F)cc1F [VCZ, voriconazole]	< 0.12 µM	0.17 ± 0.03 µM	0.21 ± 0.02 µM	0.07 ± 0.01 µM	0.8 ± 0.03 µM	2.5 fold	< 0.12 µM	4 fold	4 fold	2.86 ± 0.22 µM	0.71 ± 0.03 µM	0.11 ± 0.02 µM	0.06 µM	0.08 ± 0.01 µM	2.07 ± 0.21 µM	MIC80 ([1]; Table 2, strain I301T, SD pH 6.8, 48 h, 30 °C): 0.11 ± 0.00 µM; MIC80 ([3]; Saccharomyces cerevisiae, Table 2, strain ARE, SD pH 6.8, 48 h, 30 °C, ± SD, read-out: MIC80): 0.27 ± 0.03 µM; MIC80 of strain ARE relative to strain ADΔΔ ([3]; higher): 4- to 5 fold; MIC80 of strain BRE relative to strain ADΔΔ ([4]; higher): 4- to 5 fold; MIC80 ([7]; Table 2, strain T289A, SD pH 6.8, 48 h, 30 °C): 0.11 ± 0.00 µM; increase in resistance (MIC80) of strain Y121F compared with strain ARE [13]: > 8 fold and 8 fold
